Marks after values point to notes of the source that are not given here. Blank lines part the entries; values can stand above or below the compound they belong to.
What was measured:
[1] = molecular target: T1, Testosterone 5α-Reductase (Rattus norvegicus, UniProt P24008); assay: Inhibitory effect on testosterone 5α-reductase activity (rat liver enzyme, (3H) testosterone, TLC); type: biochemical, Sprague-Dawley rat
T1 construct: from tissue; host or cells: liver of 8-week-old female Sprague-Dawley rat (homogenate, sonicated and centrifuged)
T1 sequence (P24008 1-259): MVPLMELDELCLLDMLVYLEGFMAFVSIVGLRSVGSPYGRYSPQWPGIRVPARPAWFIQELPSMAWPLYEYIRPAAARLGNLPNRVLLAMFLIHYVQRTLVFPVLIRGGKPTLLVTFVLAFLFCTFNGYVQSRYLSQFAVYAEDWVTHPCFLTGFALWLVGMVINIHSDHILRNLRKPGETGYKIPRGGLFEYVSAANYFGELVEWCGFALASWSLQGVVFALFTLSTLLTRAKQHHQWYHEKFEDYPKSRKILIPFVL
Method: Testosterone 5α-Reductase, used to examine the inhibitory effect of the extract obtained from oriental medicines against testosterone 5α-reductase activity, was prepared at a temperature of below 4° C. The white female Sprague-Dawley rat aged at 8 weeks was anesthetized by inhalation of diethylether and sacrificed by the disjunction of cervicals, followed by liver ablation. The extracted liver was washed three times with PBS (phosphate buffered saline) and 3 volumes of ice-cold buffer (50 mM sodium phosphate, pH 6.8, 0.25 M sucrose, 1 mM dithiothreitol) were added, followed by pulverizing with a cell homogenizer (Polytron Homogenizer), obtaining homogenized suspension. […] The protein quantification of the protein suspension obtained thus was performed according to Bradford method and its accurate value was determined with ELISA reader.
For evaluating the inhibitory effect on the activity of 5α-Reductase, to 50 μl of the reaction solution, 10 μl of ethanol solution of inhibitor or tested sample (70% ethanol solution containing extract from oriental medicine) were added and the protein suspension was added to the volume of 100 μl of the reaction solution. […] The area exposed was measured with densitometer and the inhibitory rate against testosterone 5α-Reductase was calculated as shown in the below formula 1. […]

comedo of rabbit ear [2] = assay: Alleviatory effect on comedo using ear of white rabbit, observation with naked eye; type: in vivo, New Zealand white male rabbits
Excerpt: (§1) Test system—This test has been generally adopted for evaluation of treatment. New Zealand white male rabbits aged at 4-month and weighed 2-3 kg were purchased and mitigated for 1 week, of which only the healthy ones determined with naked eye were selected.
(§2) Test materials—For test groups, the powderized extracts (0.1% (w/v)) from Cavalia gladiata, Biota orientalis, Coptis chinensis and their mixture dissolved in 70% ethanol solution were used, respectively, 1.0% azelaic acid dissolved in 70% ethanol solution was used as a positive control and 70% ethanol solution per se was used as negative control.
(§3) Classification of test systems—Isopropyl myriatate (Sigma) was daily applied to both ears of rabbit for 2 weeks for inducing comedo. Rabbits observed with naked eye to show typical comedo were selected and classified to groups each of which was comprised of 6 rabbits in consideration of comedo severity.
(§4) Administration method of test materials—Test groups and a positive control to the right ear and a negative control to the left ear of rabbit were administered once daily for 2 weeks in the amount of 0.5 ml and spread with a swab. After 2 weeks, both ears were evaluated.
The standards for determination with naked eye were classified to 7 grades, 0, 0.5, 1.0, 1.5, 2.0, 2.5 and 3.0. The area of comedo was evaluated. The period for treatment of comedo was 2-week and the aggravation and alleviation of comedo were determined.
• 0: no difference compared to control • […]: symptoms between 0 and 1 • 1: showing congestion, bleeding of capillary tube, slight cornification and enlargement of hair follicle • 1.5: symptoms between 1 and 2 • 2: medium severity of cornification and enlargement of hair follicle • 2.5: symptoms between 2 and 3 • 3: excessive severity of cornification and enlargement of hair follicle, showing typical comedo

comedo of rabbit ear [3] = assay: Alleviatory effect on comedo using ear of white rabbit, observation with image analysis; type: in vivo, New Zealand white male rabbits
Excerpt: as §1, §2, §3, §4
After the observation with naked eye, each test group was euthanized with sodium pentobarbital and its both ears were cut out, after which their tissues at basement were cleaved in a size of about 2.5×1.5 cm and immersed in warm water (50° C.) for 3 min. The epiderms from the tissues were detached, placed with inner side upward on slide glass, fixed and dried at room temperature.

carrageenan foot edema = assay: Carrageenan foot edema method using SD rat; type: in vivo; conditions: 30 mg/kg intraperitoneally, 1 hr before carrageenan; foot volume change at 4 hr
Method: The extracts from Cavalia gladiata, Biota orientalis, Coptis chinensis and their mixture prepared in Example 1 were intraperitoneally administered, respectively, in an amount of 30 mg/kg. After 1 hr, 0.5 ml of 0.1% carrageenan solution was injected into the sole of a back foot to induce inflammation. The volume change of rat foot at the time of injection of carrageenan and 4-hr after administration was measured and the Inhibitory rate was calculated according to the Formula 3. Inhibitory rate (%)=[(1−ΔVtreated group)/ΔVcontrol group)]×100 (ΔV: volume change of foot) Formula 3

Propionibacterium acnes = assay: Antimicrobial activity against acne pathogen (agar medium, anaerobic culture, colony count); type: cell-based; set-up: key: −: inhibition of growth; ±: pseudo-positive; +: positive
Method: The examination on antimicrobial activity of three extracts (Cavalia gladiata, Biota orientalis and Coptis chinensis) was performed in such a manner that an acne pathogen (Propionibacterium acnes) that was cultured in liquid medium was treated with a predetermined concentration of extract powderized by freeze drying and then cultured in an anaerobic incubator, followed by measuring a minimum inhibitory concentration (MIC) against an acne pathogen (Propionibacterium acnes). The overall procedure is as follows:
The acne pathogen (Propionibacterium acnes) was cultured at 37° C. for 3 days in reinforced clostridial medium and then continued to subculture until showing significant activity.
First, in a liquid culture method, 10 ml of reinforced clostridial medium were introduced to screw cap tube and sterilized for 20 min at 121° C. After sterilization, 0.5 ml of liquid paraffin sterilized separately was added dropwise on the liquid medium to protect the contact with oxygen. After cooling the medium, the microbe was inoculated into the medium and cultured at 37° C. for above 72 hr.
Second, in a solid culture method, 10 ml of the solid medium prepared by adding 0.1% agar to reinforced clostridial medium was introduced to a screw cap tube and sterilized at 121° C. for 20 min. After cooling the medium, the microbe was inoculated into the medium by use of inoculating platinum loop and stab-cultured for 72 hr at 37° C.
Third, in a plate culture method, the agar medium prepared and sterilized as a solid culture method was poured to a plate and cooled. After cooling and solidifying completely, the plate was placed in an anaerobic jar, 10 ml of water were introduced to complex gas (CO2 10.5%, H2 9.6%, N2 79.9%) and the lid was kept covered, followed by culturing at 37° C. for 72 hr.
1 ml of the medium containing Propionibacterium acnes subjected to a sufficient subculture was taken and inoculated into a medium containing 9 ml of reinforced clostridial medium, thereby obtaining 10-fold diluted culture medium. The same procedure was repeated to obtain between 10^−1 and […] diluted culture media. Each of the homogeneous solutions containing Cavalia gladiata, Biota orientalis, Coptis chinensis and at least two combinations thereof was well dissolved in 10 ml of 70% ethanol to obtain 2-fold diluted solution. The solution was filtered for removing bacteria through 0.2 μm membrane filter. […] 1 ml of the diluted medium (medium of Propionibacterium acnes subject to subculture diluted to 10^−1-10^−5) was dispensed in a petri dish and each agar medium having certain concentration was dispensed, followed by mixing and keeping it to stand for solidifying the agar medium. After solidification, the medium was placed in an anaerobic jar that in turn was equipped with gas-pak. Following culturing at 37° C. for 3 days, the number of colonies formed were counted and compared to that of a control group, and the inhibitory rate was calculated based on the results.

mouse ear edema = assay: Balb.c ear edema test; type: in vivo, Balb.c mouse; conditions: 0.3 mg/ear topically at 15 min and 6 hr after induction; 24 hr
Method: To examine anti-inflammatory effect of the extracts, irritation-inducing substances, 5.0% benzalkonium chloride, 2.5% coroton oil and 3000 iu/g retinoic acid (negative control) were dissolved in 70% ethanol solution and its 0.3 mg/ear was topically applied to mouse ear (6 mice per group) in order to induce edema. At 15 min and 6 hr after induction of edema, respectively, each of the extract and controls (0.3 mg/ear) was topically applied to mouse ear. After 24 hr of application of irritation-inducing substances, the applied portion of the mouse was cut off with a punch and its weight was weighted. The edema extent was evaluated based on the mean value from the measurements with micrometer.
Inhibitory rate (%)=[(A−B)/A]×100 Formula 4
A: mean value of ear thickness of control group (ear thickness after treatment of negative control−ear thickness with no treatment)
B: ear thickness of sample group (ear thickness after treatment of sample−ear thickness with no treatment)

skin of a hairless mouse = assay: First screening for promoting keratolysis (silver acetate blackened skin, closed patch); type: in vivo; set-up: key to Discoloration (keratolysis effect): ++: significant discoloration; +: discoloration; ±: slight discoloration; −: no change; conditions: for Appearance of Exfoliation: hairless mouse, closed patch about 24 hr; for Discoloration (keratolysis effect): positive control 2 wt % (pH 4)
Method: All skin cells help to maintain skin homeostasis through suitable metabolic processes by controlling the rate of their proliferation and exfoliation. Therefore, the reproduction rate of skin could be indirectly examined by observing the exfoliation rate of stratum corneum that can be generally measured by evaluating the level of skin discoloration associated with keratolysis. In evaluating the efficacy of extracts, the first screening for promoting keratolysis was performed using hairless mouse. Each extract sample was prepared by dissolving the dried powder extract prepared in Example 1 in 70% ethanol and the positive controls including glycolic acid or lactic acid were prepared as described above. The experiments were carried out as follows: The skin of a hairless mouse was washed with 10% SDS for 30 min and then allowed its skin to dry for experiment. 0.4 ml of aqueous silver acetate liquid was covered with a hill top chamber and closed patch was performed for 30 min, followed by infiltrating with a photo-developing solution to blacken a portion of patch with silver acetate. The closed patch was further performed with each extract sample on the blackened portion and removed after about 24 hr. The coloring index before application of extract and discoloring index at 24 hr after removal were measured by means of calorimeter (The higher the discoloring index, the higher is the keratolysis effect)

[4] = extracts 0.1% (w/v), azelaic acid 1.0%, 2 weeks

Inhibitory rate against 5α-reductase (%) ([1]; Conc. 0.1 %): 19.8%
Inhibitory rate against 5α-reductase (%) ([1]; Conc. 1.0 %): 100.0%
SMILES: O=C(O)CCCCCCCC(=O)O [Azelaic acid]
Inhibitory rate (%), naked eye comedo grade (comedo of rabbit ear [2]; [4]): 28.5%
After administration (right ear), naked eye comedo grade (comedo of rabbit ear [2]; grades 0-3, extracts 0.1% (w/v), azelaic acid 1.0%, 0.5 ml once daily for 2 weeks): 1.13 ± 0.14
Before administration (left ear), naked eye comedo grade (comedo of rabbit ear [2]; grades 0-3, left ear): 1.58 ± 0.12
Inhibitory rate (%), area of comedo/number (comedo of rabbit ear [3]; [4]): 40.0%
After administration (right ear) Area of comedo/number (cm^2) (comedo of rabbit ear [3]; image analysis, extracts 0.1% (w/v), azelaic acid 1.0%, once daily for 2 weeks): 0.18 ± 0.02 cm^2
Before administration (left ear) Area of comedo/number (cm^2) (comedo of rabbit ear [3]; image analysis, left ear): 0.30 ± 0.02 cm^2
comedo decreasing ratio (area/count ratio) (comedo of rabbit ear [3]; text restating Table 11): 40.0%

SMILES: CC(=O)Oc1ccccc1C(=O)O [Aspirin]
Inhibitory rate (%) of foot edema (carrageenan foot edema): 35.2 ± 6%

MIC to P. acnes (growth at concentration of extract) (Propionibacterium acnes; Concentration of extract 0.005 %): +
MIC to P. acnes (growth at concentration of extract) (Propionibacterium acnes; Concentration of extract 0.01 %): +
MIC to P. acnes (growth at concentration of extract) (Propionibacterium acnes; Concentration of extract 0.03 %): +
MIC to P. acnes (growth at concentration of extract) (Propionibacterium acnes; Concentration of extract 0.05 %): +***
MIC to P. acnes (growth at concentration of extract) (Propionibacterium acnes; Concentration of extract 0.10 %): ±**
MIC to P. acnes (growth at concentration of extract) (Propionibacterium acnes; Concentration of extract 0.50 %): −
SMILES: O=C(OOC(=O)c1ccccc1)c1ccccc1 [Benzoylperoxide]

SMILES: CC1(C)[C@@H](O[C@H]2O[C@H](C(=O)O)[C@@H](O)[C@H](O)[C@H]2O[C@@H]2O[C@H](C(=O)O)[C@@H](O)[C@H](O)[C@H]2O)CC[C@]2(C)[C@H]3C(=O)C=C4[C@@H]5C[C@@](C)(C(=O)O)CC[C@]5(C)CC[C@@]4(C)[C@]3(C)CC[C@@H]12 [Glycyrrhizinic acid]
Inhibitory rate on ear thickness (%) (mouse ear edema): 42.7%
Inhibitory rate on ear weight (%) (mouse ear edema): 38.4%

SMILES: O=C(O)CO [Glycolic acid]
Appearance of Exfoliation (skin of a hairless mouse): Heterogeneous
Discoloration (keratolysis effect) (skin of a hairless mouse): 2 wt % (pH 4) ++

SMILES: COc1ccc2c(c1)c(CC(=O)O)c(C)n2C(=O)c1ccc(Cl)cc1 [Indomethacin]
Inhibitory rate on ear thickness (%) (mouse ear edema): 52.0%
Inhibitory rate on ear weight (%) (mouse ear edema): 45.6%

SMILES: CC(O)C(=O)O (stereo not drawn) [Lactic acid]
Appearance of Exfoliation (skin of a hairless mouse): Heterogeneous
Discoloration (keratolysis effect) (skin of a hairless mouse): 2 wt % (pH 4) ++

— US7695741B2, “Topical formulation for prevention and treatment of acne” (SK Chemicals Co., Ltd., priority 2002, dated 2010)
